Reference: patent publication US10358434B2, “2-(3-pyridinyl)-1H-benzimidazole derivative compound and medicament containing same” (NIHON MEDI-PHYSICS CO., LTD., priority 2014, dated 2019)

How the values were obtained:
[1] = Plasma stability evaluation (TLC analysis); type: in vitro ADME; details: 37° C., 60 minutes
Method: Evaluation was made using a heparin-treated normal human plasma pool (Kohjin Bio Co., Ltd.). Compounds [^18F] 100, [^18F] 200, [^123I] 400, [^18F] 500, and [^123I] 601 to 610 obtained by the methods shown in Examples 2, 4, 7, 9, 11, 13, 15, 17, 19, 21, 23, 25, 27, and 29 were each added to the aforementioned human plasma (5 mL), and the obtained mixture was then incubated at 37° C. for 60 minutes. Thereafter, the mixture was centrifuged with addition of methanol, so that a deproteinization treatment was carried out. Thereafter, stability was evaluated by TLC analysis. As TLC analysis conditions, the TLC analysis conditions applied upon the above described synthesis of each compound were applied.

[2] = test system: human adrenal gland section expressing aldosterone-producing adenoma; test: In vitro autoradiography using human adrenal adenoma; type: binding
Description: From adrenal gland excised from a human patient for treatment of primary aldosteronism, a portion containing aldosterone-producing adenoma was removed and was then frozen. The frozen adrenal gland was embedded in an embedding agent for production of a frozen tissue section (Tissue-Tek O.C.T. Compound, Sakura Finetek Japan). Using a freezing microtome (CM3050S, Leica Microsystems), a 7-μm thin slice section, which is schematically shown in FIGS. 17(a) and 17(b), was produced, and was preserved at −20° C. before use. In FIGS. 17, 71a and 71b indicate aldosterone-producing adenomas, 72a and 72b indicate normal adrenal cortexes, and 73a and 73b indicate normal adrenal medullas. A 5-33 kBq/mL solution was prepared by adding a suitable amount of each of Compounds [^18F] 100, [^18F] 200, [^123I] 400, [^18F] 500, and [^123I] 601 to [^123I] 610, which were obtained by the methods described in Examples 2, 4, 7, 9, 11, 13, 15, 17, 19, 21, 23, 25, 27, and 29, or [^123I] IMTO to a phosphate-buffered physiological saline containing 1 w/v % bovine serum albumin (not containing fatty acid). The radioactivity concentration was measured using an autowell gamma system (ARC-7001, manufactured by Hitachi Aloka Medical, Ltd.). The section was immersed in the obtained sample solution for 10 minutes. For Compounds [^18F] 100, [^18F] 200, [^123I] 400, [^18F] 500, [^123I] 601 and [^123I] 602, the section shown in FIG. 17(a) was used, and for Compounds […] [^123I] IMTO, both sections shown in FIGS. 17(a) and (b) were used. Each sample solution was washed off, and the section was then exposed to an imaging plate (BAS-SR2040, manufactured by FUJIFILM Holdings Corporation) (IP) for 16-20 hours, and thereafter, an autoradiogram was obtained using a fluoro-image analyzer (FLA-7000, manufactured by FUJIFILM Holdings Corporation).
In order to quantitatively compare differences between images caused by ^123I and ^18F nuclides, a correction was made by calculating accumulation of radioactivity within the range of a region of interest (ROI) by means of integral calculation based on half-life, added radioactivity and IP contact time.
610. FIG. 18(b), FIG. 19(b), FIG. 20(b), FIG. 21(b), FIG. 22(a), FIG. 23(a), FIG. 24(a), FIG. 25(a), FIG. 26(a), FIG. 27(a), FIG. 28(a), FIG. 29(a), FIG. 30(a), and FIG. 31(a) each show an autoradiogram of [^123I] IMTO. […] 100, [^18F] 200, [^123I] 400, [^18F] 500, and [^123I] 601 to [^123I] […] The ROI having the same area as each other was established in a normal site and in a site in which aldosterone-producing adenoma had developed. Then, the PSL value (B1) indicating accumulation of radioactivity in the sites of normal adrenal cortexes 72a and 72b was compared with the PSL value (B2) indicating accumulation of radioactivity in the sites of aldosterone-producing adenomas 71a and 71b. In Table 7, the B1, B2 and B2/B1 values of [^18F] 100 indicate the mean values for the number of tests (n), respectively.

[3] = In vivo kinetics experiment (radioactivity distribution); set-up: species or system Wistar male rat; details: rat; for Adrenal gland/blood ratio of radioactivity accumulation / Adrenal gland/fat ratio of radioactivity accumulation / Adrenal gland/kidney ratio of radioactivity accumulation / Adrenal gland/liver ratio of radioactivity accumulation / Adrenal gland/muscle ratio of radioactivity accumulation / Adrenal gland/small intestine ratio of radioactivity accumulation / Radioactivity distribution Adrenal gland / Radioactivity distribution Bladder (including urine) / Radioactivity distribution Blood / Radioactivity distribution Fat / Radioactivity distribution Femur / Radioactivity distribution Heart / Radioactivity distribution Kidney / Radioactivity distribution Large intestine / Radioactivity distribution Liver / Radioactivity distribution Lung / Radioactivity distribution Muscle (lower limbs) / Radioactivity distribution Remaining whole body / Radioactivity distribution Small intestine / Radioactivity distribution Spleen / Radioactivity distribution Stomach / Radioactivity distribution Testis / Radioactivity distribution Whole brain: caudal vein
Method: Each of Compounds [^18F] 100, [^18F] 200, [^123I] 400, [^18F] 500, and [^123I] 601 to 610 obtained by the methods described in Examples 2, 4, 7, 9, 11, 13, 15, 17, 19, 21, 23, 25, 27, and 29, or [^123I] IMTO, was diluted with a physiological saline containing 1 w/v % ascorbic acid to prepare a solution to be administered. The above described compound (approximately 1 to 3.7 MBq) was injected into the caudal vein of a Wistar male rat (9 weeks old) under anesthesia with a mixed gas of isoflurane/air, and ten minutes after the injection, the rat was sacrificed by exsanguination. From the thus sacrificed rat, blood and organs (heart, lung, stomach, liver, spleen, small intestine, large intestine, kidney, bladder (including urine), muscle (lower limbs), brain, adrenal gland, testis, fat, femur, or thyroid gland) were excised, and the weights thereof were then measured. Thereafter, radioactivity was measured in the blood, the individual excised organs, and the remaining whole body. Further, 30 and 60 minutes after the administration, the same operations as those described above were carried out. […] The symbol “n” in Tables 9 to 23 indicates the number of rats used. In addition, Tables 9 to 23 also show the ratio of radioactivity accumulation in adrenal grand (% ID/g) to radioactivity accumulation in each of blood, liver, kidney, small intestine, muscle and fat (% ID/g).

Radiochemical purity after incubation in human plasma ([1]; TLC analysis): 97% | Adrenal gland/blood ratio of radioactivity accumulation ([3]; 10 min after administration): 137.96 ± 52.72 | Adrenal gland/fat ratio of radioactivity accumulation ([3]; 10 min after administration): 141.33 ± 57.27 | Adrenal gland/kidney ratio of radioactivity accumulation ([3]; 10 min after administration): 6.14 ± 2.01 | Adrenal gland/liver ratio of radioactivity accumulation ([3]; 10 min after administration): 1.93 ± 0.69 | Adrenal gland/muscle ratio of radioactivity accumulation ([3]; 10 min after administration): 63.25 ± 34.56 | Adrenal gland/small intestine ratio of radioactivity accumulation ([3]; 10 min after administration): 9.89 ± 2.73 | Radioactivity distribution Adrenal gland ([3]; 10 min after administration): 10.19 ± 3.35 % ID/g | Radioactivity distribution Bladder (including urine) ([3]; 10 min after administration): 0.22 ± 0.08 % ID/g | Radioactivity distribution Blood ([3]; 10 min after administration): 0.08 ± 0.01 % ID/g | Radioactivity distribution Fat ([3]; 10 min after administration): 0.08 ± 0.02 % ID/g | Radioactivity distribution Femur ([3]; 10 min after administration): 0.63 ± 0.08 % ID/g | Radioactivity distribution Heart ([3]; 10 min after administration): 0.32 ± 0.08 % ID/g | Radioactivity distribution Kidney ([3]; 10 min after administration): 1.70 ± 0.40 % ID/g | Radioactivity distribution Large intestine ([3]; 10 min after administration): 0.15 ± 0.02 % ID/g | Radioactivity distribution Liver ([3]; 10 min after administration): 5.39 ± 0.99 % ID/g | Radioactivity distribution Lung ([3]; 10 min after administration): 0.63 ± 0.08 % ID/g | Radioactivity distribution Muscle (lower limbs) ([3]; 10 min after administration): 0.23 ± 0.24 % ID/g | Radioactivity distribution Remaining whole body ([3]; 10 min after administration): 0.22 ± 0.03 % ID/g | Radioactivity distribution Small intestine ([3]; 10 min after administration): 1.03 ± 0.14 % ID/g | Radioactivity distribution Spleen ([3]; 10 min after administration): 3.85 ± 0.65 % ID/g | Radioactivity distribution Stomach ([3]; 10 min after administration): 0.56 ± 0.17 % ID/g | Radioactivity distribution Testis ([3]; 10 min after administration): 0.05 ± 0.01 % ID/g | Radioactivity distribution Whole brain ([3]; 10 min after administration): 0.01 ± 0.00 % ID/g | Adrenal gland/blood ratio of radioactivity accumulation ([3]; 30 min after administration): 249.08 ± 51.81 | Adrenal gland/fat ratio of radioactivity accumulation ([3]; 30 min after administration): 352.33 ± 208.06 | Adrenal gland/kidney ratio of radioactivity accumulation ([3]; 30 min after administration): 18.18 ± 4.58 | Adrenal gland/liver ratio of radioactivity accumulation ([3]; 30 min after administration): 3.58 ± 0.82 | Adrenal gland/muscle ratio of radioactivity accumulation ([3]; 30 min after administration): 179.35 ± 63.77 | Adrenal gland/small intestine ratio of radioactivity accumulation ([3]; 30 min after administration): 11.12 ± 2.64 | Radioactivity distribution Adrenal gland ([3]; 30 min after administration): 19.61 ± 4.29 % ID/g | Radioactivity distribution Bladder (including urine) ([3]; 30 min after administration): 1.17 ± 0.77 % ID/g | Radioactivity distribution Blood ([3]; 30 min after administration): 0.08 ± 0.01 % ID/g | Radioactivity distribution Fat ([3]; 30 min after administration): 0.07 ± 0.02 % ID/g | Radioactivity distribution Femur ([3]; 30 min after administration): 0.71 ± 0.18 % ID/g | Radioactivity distribution Heart ([3]; 30 min after administration): 0.27 ± 0.06 % ID/g | Radioactivity distribution Kidney ([3]; 30 min after administration): 1.10 ± 0.16 % ID/g | Radioactivity distribution Large intestine ([3]; 30 min after administration): 0.20 ± 0.02 % ID/g | Radioactivity distribution Liver ([3]; 30 min after administration): 5.55 ± 0.80 % ID/g | Radioactivity distribution Lung ([3]; 30 min after administration): 0.43 ± 0.07 % ID/g | Radioactivity distribution Muscle (lower limbs) ([3]; 30 min after administration): 0.12 ± 0.03 % ID/g | Radioactivity distribution Remaining whole body ([3]; 30 min after administration): 0.18 ± 0.03 % ID/g | Radioactivity distribution Small intestine ([3]; 30 min after administration): 1.78 ± 0.21 % ID/g | Radioactivity distribution Spleen ([3]; 30 min after administration): 4.57 ± 1.32 % ID/g | Radioactivity distribution Stomach ([3]; 30 min after administration): 0.73 ± 0.11 % ID/g | Radioactivity distribution Testis ([3]; 30 min after administration): 0.06 ± 0.01 % ID/g | Radioactivity distribution Whole brain ([3]; 30 min after administration): 0.01 ± 0.00 % ID/g | Adrenal gland/blood ratio of radioactivity accumulation ([3]; 60 min after administration): 247.32 ± 64.42 | Adrenal gland/fat ratio of radioactivity accumulation ([3]; 60 min after administration): 397.01 ± 160.35 | Adrenal gland/kidney ratio of radioactivity accumulation ([3]; 60 min after administration): 18.96 ± 4.83 | Adrenal gland/liver ratio of radioactivity accumulation ([3]; 60 min after administration): 5.20 ± 1.19 | Adrenal gland/muscle ratio of radioactivity accumulation ([3]; 60 min after administration): 236.89 ± 62.76 | Adrenal gland/small intestine ratio of radioactivity accumulation ([3]; 60 min after administration): 7.66 ± 2.34 | Radioactivity distribution Adrenal gland ([3]; 60 min after administration): 21.34 ± 5.24 % ID/g | Radioactivity distribution Bladder (including urine) ([3]; 60 min after administration): 2.41 ± 0.97 % ID/g | Radioactivity distribution Blood ([3]; 60 min after administration): 0.09 ± 0.01 % ID/g | Radioactivity distribution Fat ([3]; 60 min after administration): 0.06 ± 0.03 % ID/g | Radioactivity distribution Femur ([3]; 60 min after administration): 0.77 ± 0.13 % ID/g | Radioactivity distribution Heart ([3]; 60 min after administration): 0.26 ± 0.03 % ID/g | Radioactivity distribution Kidney ([3]; 60 min after administration): 1.13 ± 0.17 % ID/g | Radioactivity distribution Large intestine ([3]; 60 min after administration): 0.38 ± 0.22 % ID/g | Radioactivity distribution Liver ([3]; 60 min after administration): 4.11 ± 0.66 % ID/g | Radioactivity distribution Lung ([3]; 60 min after administration): 0.45 ± 0.05 % ID/g | Radioactivity distribution Muscle (lower limbs) ([3]; 60 min after administration): 0.09 ± 0.01 % ID/g | Radioactivity distribution Remaining whole body ([3]; 60 min after administration): 0.18 ± 0.02 % ID/g | Radioactivity distribution Small intestine ([3]; 60 min after administration): 2.85 ± 0.37 % ID/g | Radioactivity distribution Spleen ([3]; 60 min after administration): 4.40 ± 1.15 % ID/g | Radioactivity distribution Stomach ([3]; 60 min after administration): 1.02 ± 0.19 % ID/g | Radioactivity distribution Testis ([3]; 60 min after administration): 0.08 ± 0.01 % ID/g | Radioactivity distribution Whole brain ([3]; 60 min after administration): 0.02 ± 0.00 % ID/g
Structure (SMILES): Fc1cc2nc(-c3cncc(Cn4ccnc4)c3)n(CC[18F])c2cc1Cl [[^18F] 100, 6-Chloro-5-fluoro-1-(2-[^18F]fluoroethyl)-2-[5-(imidazol-1-ylmethyl)pyridin-3-yl]benzimidazole]
stability in human plasma [1]: hardly metabolized and decomposed in the plasma | accumulation of radioactivity in adrenal gland section (autoradiogram) ([2]; FIGS. 18 to 31): accumulation of radioactivity was selectively observed in a region in which aldosterone-producing adenoma had been pathologically observed | B2/B1 accumulation ratio ([2]; section of FIG. 17(a)): 5.08 | B2 (PSL value, aldosterone-producing adenoma) ([2]; section of FIG. 17(a), site 71a): 16480 | B1 (PSL value, normal adrenal cortex) ([2]; section of FIG. 17(a), site 72a): 3241 | accumulation of radioactivity in adrenal gland vs blood and peripheral tissues ([3]; Tables 9 to 22): high accumulation of radioactivity in adrenal gland was observed, in comparison to in blood and peripheral tissues
